Measurements: US20240238237A1, “CONJUGATED LINOLEIC ACID SUPPLEMENTATION FOR DISEASE TREATMENT” (VIRGINIA TECH INTELLECTUAL PROPERTIES, INC., priority 2021, published 2024)
“Also recorded” adds a separate entry of the source.

Key:
Format in all cases: in vivo, mouse
[1] = tested on: hypothalamic gene expression; experiment: Hypothalamic RNA-seq and RT-QPCR
Procedure: Fresh hypothalamus tissue was lysed in TRIzol® using a rotor stator homogenizer. TRIzol samples were frozen at −20° C. in microfuge tubes until purified (2 weeks to 5 months). […] Purified RNA was then DNAse-treated using TURBO DNA-free™ Kit (ThermoFisher #AM1907) according to manufacturer's instructions, diluted to 60 ng/μL in nuclease-free water, and stored at −80° C.
RNA sequencing and library preparation was performed by Virginia Tech's Genomics Sequencing Center facility at the Fralin Life Sciences Institute. […] The library was enriched by 14 cycles of PCR, validated using Agilent TapeStation, and quantitated by qPCR. Individually indexed cDNA libraries were pooled and sequenced on NextSeq 75 SR. The Illumina NextSeq Control Software v2.1.0.32 with Real Time Analysis RTA v2.4.11.0 was used to provide the management and execution of the NextSeq 500 and to generate binary base call (BCL) files. The BCL files were converted to FASTQ files, adapters trimmed, and demul-tiplexed using bcl2fastq Conversion Software v2.20. FASTQ files were aligned to mouse genome GRCm38.p6 using the Geneious RNA assembler 2 Jan. […] Raw read counts were quantified to gene and/or transcript annotations with loss of strand-specificity. Differential expression analysis across experimental conditions was performed using the DESeq2 plugin in Geneious Prime. Default settings for filtering low-expression mapped genetic features were used for the DESeq2 plugin. False discovery rate (FDR) was calculated using the Benjamini-Hochberg procedure with a threshold for significance of FDR <0.10. Additionally, raw read counts were used to quantify differential expression through edgeR and voom using the DEApp online webserver. Low-expression mapped genetic features were removed with log 2CPM <1 in 2 or more samples. The results from the three differential expression methodologies, DESeq2, edgeR, and voom, were compared using R and spreadsheet software such as Microsoft Excel. Differentially expressed genes were analyzed for gene-ontology enrichment with MouseMine.
Reactions of 10 μL were performed using 150 nM final primer concentration. […] A 90 ng measure of RNA was used per 10 μL reaction. Two to three technical replicates were performed. Control reactions for each sample (minus reverse-transcriptase and minus template controls) were used for quality control. […] Quality-control measures including melt-curve analysis, technical replicate analysis, etc., were analyzed by thermocycler software and by operator; any major errors were excluded from analysis when deemed appropriate by the quality-control software, and/or new samples and plates were run. Candidate reference genes for ddCT analysis were analyzed and mouse beta-actin was chosen as the reference gene control for all experiments.
The numbers of samples in statistical tests are described in respective figures. The 2ddCT method of relative quantification was used. Statistical significance tests were performed on respective ddCT values, from which Relative Quantification values were derived. A two-way ANOVA with Bonferroni correction was used for relative expression of RNA normalized to WT or control conditions.

[2] = tested on: Normal, Snord116m+/p− (PWS model) and PWS KO mice; experiment: Body weight, body fat and lean mass, 12-week feeding study, Example 2; details: 12 weeks, CLA 0.5% per gram food
Excerpt: Normal an d Snord116^m+/p− mice (PWS model), as well as mice with a complete deletion of Snord116 (PWS KO) were randomly divided into control or CLA-treatment groups. the diets (from Envigo/Harland-Teklad) were composed of 20% fat, and matched in all other components. Conjugated linoleic acid (Tonalin™, composed of 60%-90% of the cis-9, trans-11 and trans-10, cis-12 CLA isomers in a 50/50 ratio) was provided to the CLA-treatment groups to equal 0.5% per gram food intake.
Adult mice (aged 8-10 weeks) were housed individually, and given ad libitum access to either control or CLA food for 12 weeks. They were weighed weekly, and food intake, body fat, body lean mass, and rectal temperature were measured weekly.

[3] = tested on: C57Bl/6 WT and PWS mice; 129v/J WT and Nhlh2 KO mice; experiment: Elevated plus maze anxiety symptoms, Example 2
Procedure: Mice were tested, using a pre-post design and an elevated plus maze for anxiety symptoms FIG. 16A. Mice that are anxious generally will spend less time in the open arms, compared to those without anxiety. PWS patients show a number of neurobehavioural traits with the most commonly diagnosed phenotype being anxiety. In this study mice were placed in the middle of a plus-type maze, and entrance, as well as time spent in open or closed arms over a 5 minute period were tested. Mice were tested only once before entering the 12-week feeding stud, and once at the end of the 12-week feeding study. The percent time is reported. The data shown in FIG. 16B-16C show a comparison between pre-week test results, and the two treatment groups for each genotype in the post-week test. As shown in FIGS. 16B and 16C, the percent time in open arms was less for all animals. […] These findings can be translated to treatment of humans with anxiety.

[4] = tested on: C57Bl/6 WT, PWS, PWS-KO mice and 129v/J mice with a deletion of Nhlh2; experiment: Rotarod balance and forward locomotion, Example 2; details: end of 12 week study, regardless of genotype
Procedure: At the end of the 12 week study, mice were acclimated to using a rotarod apparatus (FIG. 15A), for one day with grip tape on the rod, and two days without grip tape, at an acceleration of 2.65%, starting from 0) rpm to a maximum speed of 20 rpm. The average of four trials, spaced at least 5 minutes apart on day 4 of testing were the basis for the experimental result.

[5] = tested on: testes of N2KO and WT mice; experiment: Testicular histology (H&E), Example 3
Excerpt: At the end of the study, numerous body tissues were taken during necropsy, including testes. […] There appeared to be no effect in WT mice.
At the end of the 12-week feeding study with supplemental CLA, mice were euthanized and necropsied. Testicular tissue was removed from the abdominal cavity and placed in 4% paraformaldehyde overnight. The next day, tissue was dehydrated in 70% ethanol and stored at 4 degrees C. until further processing, which included embedding, sectioning and H&E staining.

[6] = tested on: WT, PWS (Snord116m+/p−) and PWS-KO (Snord116m−/p−) mice; experiment: Spontaneous wheel running; details: post-study
Procedure: For the spontaneous/motivated wheel running analysis, mice were placed in wire-bottom cages equipped with computer-monitored running wheels (Mini-mitter, Sunriver, OR, USA) for a total of 4 days, and then returned to their home cages. The first two days were not recorded as these were considered acclimation days, and the last 48 h were used for data collection. Mice had ad lib access to food and water during this time. For the pre-week, regular mouse chow was provided. For the post-week measurements, mice were supplied with their study diet during testing.

Substance: conjugated linoleic acid [CLA]
- Chmp1b mRNA, verification QPCR ([1]; QPCR, p=0.01): increase was maintained
- Retreg2 mRNA, validation QPCR ([1]; QPCR, p=0.22): not significant
- Genes up-regulated by CLA diet ([1]; RNA-seq): 135 genes
- Retreg2 mRNA reduction ([1]; RNA-seq, CLA diet treatment on PWS mice): 0.89 fold
- Differentially expressed genes between control diet and CLA diets ([1]; RNA-seq, WT and PWS hypothalamus): 431 genes
- Chmp1b mRNA increase with CLA diet ([1]; RNA-seq, both genotypes): 1.27 fold
- Mael expression in PWS mice ([1]; RNA-seq, not confirmed by RT-QPCR): rescued
- Gene Ontology enrichment, WT response to CLA diet ([1]; WT only): starvation, nutrient levels, and cellular stress were significantly enriched
- Gene Ontology enrichment, CLA vs control ([1]; all genotypes): significantly enriched processes related to ribosomal RNA processing, cellular metabolic processes, and aging, lethality, or survival processes
- Lean (muscle) mass [2]: no changed; also recorded: did not change
- Body fat ([2]; vs control diet): significant reduction
- Body weight ([2]; vs control diet): significant reduction
- Percent time in open arms, 129v/J WT and Nhlh2 KO mice ([3]; 12 weeks CLA vs control diet): highly significant improvement
- Percent time in open arms, PWS mice ([3]; C57Bl/6 PWS mice, post-week): numeric improvement
- Rotarod balance and forward locomotion [4]: balance and forward locomotion improvement
- Testicular morphology, WT mice ([5]; 12 weeks CLA diet): no effect; also recorded: normal testicular morphology
- Testicular morphology, N2KO mice ([5]; 12 weeks CLA diet vs control diet): improved testicular morphology
- Sperm in N2KO mice fed the CLA diet ([5]; N2KO, histology): apparent presence of sperm in the epididymis
- Testis size ([5]; effect of diet): not influenced
- 24 h spontaneous wheel running [6]: non-significant
